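Step 1: Grow cells in 96-well plates. Step 2: Expose to compound for 48 hours at 5 concentrations. Step 3: Interpolate endpoints linearly; if unreached, use highest concentration. GI50 = concentration required for 50% inhibition of growth. The concentration for full growth arrest is given as TGI.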
Columns and labels:
Experiment in all cases: DTP human tumour cell line panel, 48 h
SK-OV-3 ovarian = system: SK-OV-3 ovarian
SNB-19 CNS = system: SNB-19 CNS
NCI-H23 lung = system: NCI-H23 lung
MOLT-4 leukemia = system: MOLT-4 leukemia
RPMI-8226 leukemia = system: RPMI-8226 leukemia
SN12C renal = system: SN12C renal
OVCAR-4 ovarian = system: OVCAR-4 ovarian
SK-MEL-28 melanoma = system: SK-MEL-28 melanoma
TK-10 renal = system: TK-10 renal
HCT-15 colon = system: HCT-15 colon
RXF 393 renal = system: RXF 393 renal
CCRF-CEM leukemia = system: CCRF-CEM leukemia
CAKI-1 renal = system: CAKI-1 renal
NCI-H226 lung = system: NCI-H226 lung
IGROV1 ovarian = system: IGROV1 ovarian
ACHN renal = system: ACHN renal
MALME-3M melanoma = system: MALME-3M melanoma
SF-295 CNS = system: SF-295 CNS
UACC-257 melanoma = system: UACC-257 melanoma
K-562 leukemia = system: K-562 leukemia
M14 melanoma = system: M14 melanoma
EKVX NSCLC = system: EKVX NSCLC
A549 NSCLC = system: A549 NSCLC
HL-60(TB) leukemia = system: HL-60(TB) leukemia
SF-268 CNS = system: SF-268 CNS
SK-MEL-2 melanoma = system: SK-MEL-2 melanoma
MDA-MB-231 breast = system: MDA-MB-231 breast
HCT-116 colon = system: HCT-116 colon

O=c1[nH]cnc2c1ccn2C1OC(CO)C(O)C1O (stereo unspecified)
GI50 (SK-OV-3 ovarian): 3.72 µM | TGI (SK-OV-3 ovarian): > 100 µM | GI50 (SNB-19 CNS): 14.8 µM | TGI (SNB-19 CNS): > 100 µM | GI50 (NCI-H23 lung): 6.01 µM | TGI (NCI-H23 lung): 65.4 µM | GI50 (MOLT-4 leukemia): 4.38 µM | TGI (MOLT-4 leukemia): 20.3 µM | GI50 (RPMI-8226 leukemia): 3.15 µM | TGI (RPMI-8226 leukemia): 21.5 µM | GI50 (SN12C renal): 3.6 µM | TGI (SN12C renal): > 100 µM | GI50 (OVCAR-4 ovarian): 1.48 µM | TGI (OVCAR-4 ovarian): 28.7 µM | GI50 (SK-MEL-28 melanoma): 18.6 µM | TGI (SK-MEL-28 melanoma): > 100 µM | GI50 (TK-10 renal): 3.64 µM | TGI (TK-10 renal): 51.3 µM | GI50 (HCT-15 colon): 4.1 µM | TGI (HCT-15 colon): > 100 µM | GI50 (RXF 393 renal): 3.12 µM | TGI (RXF 393 renal): 22.9 µM | GI50 (CCRF-CEM leukemia): 4.74 µM | TGI (CCRF-CEM leukemia): 96 µM | GI50 (CAKI-1 renal): 2.57 µM | TGI (CAKI-1 renal): > 100 µM | GI50 (NCI-H226 lung): 16.1 µM | TGI (NCI-H226 lung): > 100 µM | GI50 (IGROV1 ovarian): 4.32 µM | TGI (IGROV1 ovarian): 35.1 µM | GI50 (ACHN renal): 2.51 µM | TGI (ACHN renal): > 100 µM | GI50 (MALME-3M melanoma): 6.42 µM | TGI (MALME-3M melanoma): 32.8 µM | GI50 (SF-295 CNS): 8.6 µM | TGI (SF-295 CNS): > 100 µM | GI50 (UACC-257 melanoma): 12.3 µM | TGI (UACC-257 melanoma): 78 µM | GI50 (K-562 leukemia): 5.86 µM | TGI (K-562 leukemia): > 100 µM | GI50 (M14 melanoma): 4.36 µM | TGI (M14 melanoma): > 100 µM | GI50 (EKVX NSCLC): 17.8 µM | TGI (EKVX NSCLC): > 100 µM | GI50 (A549 NSCLC): 7.53 µM | TGI (A549 NSCLC): > 100 µM | GI50 (HL-60(TB) leukemia): 3.88 µM | TGI (HL-60(TB) leukemia): 21.1 µM | GI50 (SF-268 CNS): 11.7 µM | TGI (SF-268 CNS): > 100 µM | GI50 (SK-MEL-2 melanoma): 3.04 µM | TGI (SK-MEL-2 melanoma): 17.5 µM | GI50 (MDA-MB-231 breast): 4.27 µM | TGI (MDA-MB-231 breast): > 100 µM | GI50 (HCT-116 colon): 2.29 µM | TGI (HCT-116 colon): 28.8 µM

Reference: PubChem BioAssay (NCI)
